Measurements as given in a melting point compilation (Tetko et al.; mined from patent text by program, amines drawn as free bases though some values may be those of a salt).

Compound | melting point
Cc1cc2c(cc1-c1cc(C=C3SC(=O)NC3=O)ccc1OC(F)(F)F)C(C(C)C)=CCC2(C)C | 179 °C
C=CC[C@H]1C(=O)N[C@H]2CCN(C(=O)OCc3ccccc3)[C@@H]21 (relative stereo) | 160 °C
CC(C)(CCc1ccc(Cl)c(Cl)c1)CC(=O)O | 106 to 108 °C
COc1ccc(C(=O)c2ccc(OCc3nc(-c4ccccc4)oc3C)cc2)c(OC(F)(F)C(=O)O)c1 | 166 to 167 °C
O=C(Nc1n[nH]c(=S)s1)NC(Cc1ccccc1)C(=O)NCc1cccnc1 (stereo unspecified) | 99 to 101 °C
Cc1ccccc1NC(=O)c1c(Br)cccc1[Si](C)(C)C | 113 to 115 °C
CCN1CC(=O)N(c2cc(Cl)ccc2C)C1=S | 152 to 154 °C
Cc1nn(-c2nnc(S)n2N)c2c1CCCC2 | 201 to 202 °C
COc1ccc(CCC(C)NC(Cc2ccccc2C)=NC#N)cc1 (stereo unspecified) | 103 to 104 °C
COc1cc2c(cc1OC(C)C)-c1cc3c(n1CC2)C(=O)N(C(C)(C)C)CCOC3 | 125 to 127 °C
COc1ccn2nc(-c3ccc(F)cc3)c(-c3ccc(=O)n(C)n3)c2c1 | 221 to 222 °C
Cc1ccc([N+](=O)[O-])c(C=C2NC(=O)NC2=O)c1C | 293 to 295 °C
CC(=O)OC1(C(=O)CO)CCC2C3CC(C)C4=CC(=O)C=CC4(C)C3C(O)CC21C (stereo unspecified) | 198 to 201 °C
C=C(C#N)CN1CCC(C(=O)O)CC1 | 109 to 111 °C
CCOC(=O)c1cnn(Cc2ccc(OCc3nc(-c4ccccc4)oc3C)cc2)c1 | 108 to 109 °C
CC(O)C(C)N=[N+]([O-])c1ccc(O)cc1 (stereo unspecified) | 124 to 125 °C
COc1cccc2cc(CCl)oc12 | 44.5 to 45 °C
CCCCCC(CC(=O)Nc1c(C(C)C)cccc1C(C)C)c1cccc2c1OCO2 (stereo unspecified) | 114 to 115 °C
O=C(O)Cc1c(C(=O)O)c2cc(Oc3ccc(Cl)cc3)ccc2n1-c1ccc(OC(F)(F)F)cc1 | 198 to 202 °C

Compound | melting point
CCCC(=O)NCc1nc(-c2ccc3c(c2)Nc2ccccc2S3)cs1 | 218 to 220 °C
Nc1cc(OCC2CC=CCC2)cc(N)n1 (stereo unspecified) | 89 °C
CC(C)(C)OC(=O)NC(C(=O)NOC(c1ccccc1)(c1ccccc1)c1ccccc1)C1(O)CCSC1 (stereo unspecified) | 220 to 225 °C
OC1CCCCC1n1c(NC2CC2)nc2cc(Cl)c(Cl)cc21 (stereo unspecified) | 149 to 151 °C
CSc1ccc(N)c(C#N)c1 | 50 to 54 °C
CCOC(=O)CN(NC(=O)OC(C)(C)C)C(=O)OCc1ccccc1 | 117 to 119 °C
Cc1[nH]c(=O)ccc1C(=O)c1ccc([N+](=O)[O-])cc1 | 282 to 284 °C
Cc1cccc(Cl)c1NC(=O)/C=C1\SCC(=O)N1c1ccccc1 | 213 to 214 °C
CCS(=O)(=O)C(F)(F)C(O)(Cn1cncn1)c1ccc(F)cc1 (stereo unspecified) | 131 to 132 °C
CCOC(=O)C(=C1SC(=O)N(CC(=O)O)C1=O)c1csc(NC(C)=O)n1 | 288 to 290 °C
CCOC(=O)C(C(=O)OCC)C(Cc1cc(C(F)(F)F)ccc1N)c1ccccc1Cl (stereo unspecified) | 74 to 76 °C
CNC(=O)N(C)c1cc(C(C)(C)C)on1 | 150 to 151 °C
Cc1cc(SC(C)C)c(NC(=O)CCCCSc2nc3cccc(C(F)(F)F)c3o2)c(SC(C)C)n1 | 118 to 120 °C
CC(C)c1ccc(Cc2c(N)nc(SCCN3CCNCC3)nc2N)cc1 | 63 to 64 °C
CCn1nnc(NC(=O)C2c3ccccc3COc3ccccc32)n1 (racemic) | 158 to 159 °C
Cc1cc([N+](=O)[O-])ccc1C(=O)N=CN(C)C | 118 to 121 °C
CCOC(=O)C1SCCc2cc(OC)c(OC)cc21 (stereo unspecified) | 96 to 98 °C
COC(=O)C1=Cc2cc(Cl)ccc2OC1 | 106 to 109 °C
O=C(Nc1ccc(S(=O)(=O)F)cc1)c1cc(Cl)ccc1[N+](=O)[O-] | 182 to 184 °C

Compound | melting point
N#Cc1cccc2c1CN(C1CCC(=O)NC1=O)C2=O (stereo unspecified) | 312 to 314 °C
O=C1c2cccc([N+](=O)[O-])c2C(=O)N1CC(=O)N1c2ccccc2N(Cc2ccccc2)C(=O)[C@H]2CCC[C@H]21 (relative stereo) | 238 to 240 °C
COC(=O)CCCc1cc2nc(Cl)ccc2n1S(=O)(=O)c1cccc2nc(C)sc12 | 138 °C
COc1ccc(C(=O)c2cccc(OCc3nc(-c4ccccc4)oc3C)c2)c(OCCOC(C)=O)c1 | 90 to 91 °C
Cc1ccc(-c2ccccc2C(N)=O)cc1 | 128 to 130 °C
O=[N+]([O-])C=C1NCCN1Cc1cc(Br)no1 | 202 °C
Cc1c(-c2ccccc2)n[nH]c1OCN1CCCC1 | 88 °C
Cn1cnnc1C(CCl)(c1ccc(Cl)cc1)c1ccc2c(c1)c(-c1cccc(Cl)c1)cc(=O)n2C (stereo unspecified) | 260 °C
N#Cc1ccc(Oc2cncc3sc(C(N)=O)cc23)cc1 | 255 to 257 °C
[O-][N+]1=C(c2ccccc2F)c2cc(Cl)ccc2NC(C(=NO)N2CCOCC2)C1 (stereo unspecified) | 184 to 186 °C
CC(=O)c1cc2c(s1)CCC1CC(=O)N(c3ccc(C)cc3)N=C21 (stereo unspecified) | 191 to 193 °C
CCn1c(C(C#N)c2cc(C)cc(C#N)c2)c(C(C)C)c(=O)n(COC)c1=O (stereo unspecified) | 202 to 205 °C
O=C(CCCl)NC(=O)Nc1cc(C(F)(F)F)cc(C(F)(F)F)c1 | 175 °C
CCCCCCCCCCCCCc1c(C(F)(F)F)noc1NS(=O)(=O)c1ccccc1 | 89 °C
C=CCc1cc2cc(CC=C(C)C)c(=O)[nH]c2c(CC=C)c1O | 241 to 244 °C
O=C1c2ccccc2C(=O)N1OCc1ccc(F)c(Oc2ccccc2)c1 | 88.2 °C
Cc1ccc(C=NNC(=O)OC(C)(C)C)cc1C | 168 to 169 °C
O=C1CCC(Nc2ncc3ncnc(Nc4ccc(F)c(Cl)c4)c3n2)CC1 | 232 to 234 °C
COc1ccc(C(=O)Nc2ccc(CCc3ccc(O)c(O)c3)cc2)c(O)c1 | 179 to 180 °C

Other lines, results leading:

melting point | Compound
156 to 159 °C | CCC1(CC)C(=O)Nc2ccc(-c3cccc(Cl)c3)cc21
147 to 150 °C | CCCCCCCCCCCCCc1nnc(N)o1
149 to 150 °C | CN(Cc1ccccc1)C(=O)c1c(-c2ccncc2)c(-c2ccc(F)cc2)nn1C
112 to 116 °C | CC(C)(C)OC(=O)Nn1ccc2ccccc21
102 to 105 °C | O=C(O)CCc1[nH]nc2c1CCCCC2
213 to 215 °C | O=C(O)c1cc(=O)cc(-c2ccccc2O)o1
124 to 126 °C | Cc1noc(NS(=O)(=O)c2ccccc2)c1-c1ccccc1
192 to 194 °C | CC(=O)NC[C@H]1CN(c2ccc(N3CCC(F)(F)CC3)c(F)c2)C(=O)O1
233 to 234 °C | O=C1COc2ccc(C3=C(c4ccc(Cl)cc4Cl)C(=O)OC3)cc2N1
234 °C | CCOC(=O)C1=C(C)Nc2nc(N3CCOCC3)nc(N3CCOCC3)c2C1c1cccc2nonc12 (stereo unspecified)
126 to 128 °C | COc1cc(OC)cc(-c2nc[nH]c2-c2ccc(OC)c(O)c2F)c1
161 to 162 °C | NC(=O)c1ccc(F)c(O)c1F
196 to 198 °C | NC(=O)c1c(Cl)c(-c2ccccc2)n2c1CN(C(=O)Oc1ccccc1)CC2
107 to 108 °C | CCOC(=O)C1=C(C)NC(C(OCC)OCC)=C(C(=O)OCC)C1c1cccc(O)c1 (stereo unspecified)
167 to 168 °C | CN(C)C(=O)Cc1cn(Cc2ccccc2)c2ccc(I)cc12
205 °C | C#CCOc1ccc(S(=O)(=O)C2(C(=O)O)CCN(Cc3ccc(Cl)cc3)CC2)cc1
71 to 75 °C | CCCCNS(=O)(=O)c1ccc(N2CCC(NC[C@H](O)c3ccc(O)c(NS(C)(=O)=O)c3)CC2)cc1
217 to 220 °C | Cn1nnnc1-c1cn(C)c2cc(S(=O)c3ccccc3)ccc2c1=O (stereo unspecified)
178 to 179 °C | Cc1nn(-c2ccc(F)cc2)cc1C(=O)Nc1ccc(CC(C)C)c(C#N)c1
186 to 187 °C | Cc1c(CO)nc2c(NC(=O)C(C)(C)C)cccn12
> 300 °C | Oc1nc2ccc3cn[nH]c3c2nc1O
225 to 227 °C | CCOC(=O)C1C(=O)c2cc(OC)ccc2N=C1c1ccccc1 (stereo unspecified)

melting point | Compound
107 to 110 °C | Nc1ccc(Br)cc1CO
121 to 122 °C | O=C1NC(=O)C(Cc2ccc(OCCc3cccc4ccccc34)cc2)S1 (stereo unspecified)
213 to 215 °C | CC(=O)C1=C(O)C(=C(C)Nc2ccc(OC(N)=O)cc2)C(=O)OC1=O
189 to 190 °C | CC1(c2ccc(OCc3ccccc3)c(Br)c2)C(=O)Nc2cc(Cl)cc(Cl)c2C1=O (stereo unspecified)
187 °C | Cc1c(C(=O)O)cnn1-c1ccc(F)c(Cl)c1
180 to 182 °C | O=c1[nH][nH]c(=O)c2c(O)c3c(C(F)(F)F)cccc3nc12
210 to 211 °C | CCC(CC)CNC(=O)c1ccc2cccc(Cc3ccc(C(=O)NS(=O)(=O)c4ccccc4)cc3OC)c2c1
152 °C | COC(=O)CCC(C)C1CCC2C3CC=C4CC(OC(C)=O)CCC4(C)C3CCC12C (stereo unspecified)
175 to 177 °C | Cc1c(C(N)=O)oc2ccc(Cc3cccnc3)cc12
261 to 264 °C | O=C(O)CN1C(=O)C(=Cc2cccnc2)SC1=S
85 to 88 °C | CCC(=O)Oc1cccc(NC(=O)CBr)c1
100 to 101 °C | CCC1=c2ccccc2=NC1=O
151 to 152 °C | CSc1ccc(CC(=O)NC(NC(=NC#N)Nc2ccccc2C)C(C)(C)C)cc1 (stereo unspecified)
73 to 75 °C | COC(=O)C=Cc1ccc(-n2c(C)ccc2C)cc1
99 to 105 °C | Cc1cc(F)ccc1-c1nc(NC(C)(C)CO)nc2c1ccc(=O)n2-c1c(F)cccc1F
215 to 216 °C | CN1C(=O)C2=C(c3ccc(Br)cc3)OC(=O)C2=C1c1ccccc1
192 °C | Nc1cc(O)c(C(=O)O)cc1Cl
195 to 197 °C | CS(=O)(=O)c1ccc(/C(=C\C2CCCCC2)C(=O)O)cc1
178 to 180 °C | CN(c1cccc2cc(C3=NCC(C)(CN4CCNCC4)S3)[nH]c12)S(=O)(=O)c1cccs1 (stereo unspecified)
139 to 140 °C | CCOC(CNC(=O)Nc1ccc(-n2cncn2)cc1)OCC
103 to 106 °C | CCCc1c(OCCCCCOc2ccc3ccc(OCC(=O)O)cc3c2C(C)=O)ccc(C(C)=O)c1O
182 to 184 °C | COc1ccc(Oc2c(-c3ccc(S(C)(=O)=O)cc3)cnn(-c3cccc(Cl)c3)c2=O)cc1
